From US4070484A, “Antiallergic composition containing aromatic carboxylic amide derivatives and method of using the same” (Kissei Pharmaceutical Co., Ltd., priority 1973, dated 1978)

System: not listed separately
Assay: Acute Toxicity (LD50) in mice
Format: in vivo
Details: mouse, in vivo, po, mortality on the 8th day
Method: The median lethal dose (LD50) of the new aromatic carboxylic acid amide derivatives of this invention were determined in dd-stain male and female mice (6 weeks old) by oral administration and in Wistar strain male and female rats (7 weeks old) by oral and intraperitoneal administration. Each animal selected for the experiment was maintained in an air conditioned room at a temperature of 22° ± 1° C and a relative humidity of 55 ± 5% during the full course of the experiment. All animals were fed compressed pellets (CE-2 type produced by Japan CLEA Co.) and water was available ad libitum by bottle. Five groups of ten animals for each administration route were used.
Since these compounds were isoluble in water, they were suspended in a 0.5% aqueous solution of carboxymethylcellulose at each dosage level. The administrative volume of each agent to 10 g body weight mouse was 0.2 ml for oral administration, while that to 100g body weight of rat was 0.5 ml for intraperitoneal and oral administrations.
The LD50 values were calculated from the mortality on the 8th day by the Litchfield-Wilcoxon's method.

`O=C(C=Cc1ccccc1F)Nc1ccccc1C(=O)O` [compound 30, N-(2'-fluorocinnamoyl)-anthranilic acid] and `O=C(C=Cc1ccccc1Cl)Nc1ccccc1C(=O)O` [compound 22, N-(2'-chlorocinnamoyl)-anthranilic acid] are within 1.5-fold of each other in LD50 at 192 h: 321 mg/kg for the first, 343 mg/kg for the second.

`O=C(C=Cc1cccc(Cl)c1)Nc1ccccc1C(=O)O` [N-(3'-chlorocinnamoyl)-anthranilic acid] and `O=C(C=Cc1cccc(F)c1)Nc1ccccc1C(=O)O` [compound 29, N-(3'-fluorocinnamoyl)-anthranilic acid] are within 1.5-fold of each other in LD50 at 192 h: 700 mg/kg for the first, 551 mg/kg for the second.

`O=C(C=Cc1ccc(Cl)cc1)Nc1ccccc1C(=O)O` [compound 20, N-(4'-chlorocinnamoyl)-anthranilic acid] and `O=C(C=Cc1ccc(F)cc1)Nc1ccccc1C(=O)O` [compound 28, N-(4'-fluorocinnamoyl)-anthranilic acid] are within 1.5-fold of each other in LD50 at 192 h: 551 mg/kg for the first, 481 mg/kg for the second.

System: homologous passive cutaneous anaphylaxis (antigen-antibody reaction)
Assay: Homologous Passive Cutaneous Anaphylaxis in Rats
Format: in vivo, rat (Wistar male)
Details: 200 mg/kg orally 2 hours prior to the injection of antigen
Method: Wistar male rats weighing 120-150 g were used in this experiment. […]. Normal rats were sensitized passively with dilution of the antibody by means of intradermal injection. After 48 hours of the sensitization, the mixture of antigen (EA) and evens blue was injected intravenously. The animals were killed by a blow on the head 30 minutes after the injection, and then the blue spot resulted from the antigen-antibody reaction was measured photometrically.
A given test compound dissolved in 1 % NaHCO3 solution was administrated in a dose of 200 mg/kg orally 2 hours prior to the injection of antigen, while only the vehicle solution was administered to the control group.
The efficacy of the test compounds to inhibit the homologous passive cutaneous anaphlaxis was compared with the value (%) calculated using the following formula: [formula] wherein A stands for the amount of leaked dye in control group and B for the amount of leaked dye in the group administered with a given test compound.

In the case of N-(4'-bromocinnamoylamino)-benzoic acid, the “Inhibition (%)” value is reported as 32.3%.

Same assay, conditions: Rattus norvegicus, po; 200 mg/kg orally 2 hours prior to the injection of antigen

Compared with `O=C(C=Cc1ccccc1)Nc1cccc(C(=O)O)c1` [3-(cinnamoylamino)-benzoic acid, reference compound], `O=C(C=Cc1ccccc1)Nc1ccc(C(=O)O)cc1` [4-(cinnamoylamino)-benzoic acid, reference compound] is lower in inhibition at 200 mg/kg: 10% for the first, 7% for the second.

First: COc1cc(C=CC(=O)Nc2ccccc2C(=O)O)ccc1OCC(O)CO (centres unmarked) [N-[3'-methoxy-4'-(2,3-dihydroxypropoxy)-cinnamoyl]-anthranilic acid, reference compound]
Second: COc1cc(C=CC(=O)Nc2ccccc2C(=O)O)ccc1OCC(=O)O [N-(3'-methoxy-4'-carboxylmethoxycinnamoyl)-anthranilic acid, reference compound]
The inhibition at 200 mg/kg of the first is higher: 9% for the first, 0% for the second.

Going from `O=C(C=Cc1ccc(O)cc1)Nc1ccccc1C(=O)O` [compound 1, N-(4'-hydroxycinnamoyl)-anthranilic acid] to `O=C(C=Cc1ccc(Cl)cc1)Nc1ccccc1C(=O)O` [compound 20, N-(4'-chlorocinnamoyl)-anthranilic acid], the inhibition at 200 mg/kg rises from 36.7% to 69.4%.

First: COc1cccc(C=CC(=O)Nc2ccc(C(=O)O)cc2)c1O [compound 6, 4-(2'-hydroxy-3'-methoxycinnamoylamino)-benzoic acid]
Second: COc1cccc(C=CC(=O)Nc2cccc(C(=O)O)c2)c1OC [compound 60, 3-(2',3'-dimethoxycinnamoylamino)-benzoic acid]
The inhibition at 200 mg/kg of the first is lower: 33.5% for the first, 41.1% for the second.

Going from `COc1ccc(CCC(=O)Nc2ccccc2C(=O)O)cc1OC` [compound 67, N-(3',4'-dimethoxylhydrocinnamoyl)-anthranilic acid] to `COc1cc(C=CC(=O)Nc2ccccc2C(=O)O)ccc1OC(C)C` [compound 56, N-(3'-methoxy-4'-isopropoxycinnamoyl)-anthranilic acid], the inhibition at 200 mg/kg falls from 55.4% to 47.1%.

`COc1cccc(C=CC(=O)Nc2ccccc2C(=O)O)c1OC` [compound 31, N-(2',3'-dimethoxycinnamoyl)-anthranilic acid] and `COc1cc(OC)c(OC)cc1C=CC(=O)Nc1ccccc1C(=O)O` [compound 52, N-(2',4',5'-trimethoxycinnamoyl)-anthranilic acid] are the same in inhibition at 200 mg/kg: 56.8% for the first, 56.8% for the second.

Compared with `O=C(C=Cc1ccccc1Cl)Nc1ccccc1C(=O)O` [compound 22, N-(2'-chlorocinnamoyl)-anthranilic acid], `O=C(C=Cc1ccccc1)Nc1ccccc1C(=O)O` [N-cinnamoyl-anthranilic acid, reference compound] is lower in inhibition at 200 mg/kg: 60.2% for the first, 16.7% for the second.

Going from `O=C(C=Cc1cccc(F)c1)Nc1ccccc1C(=O)O` [compound 29, N-(3'-fluorocinnamoyl)-anthranilic acid] to `Cc1ccc(C=CC(=O)Nc2ccccc2C(=O)O)cc1` [compound 42, N-(4'-methylcinnamoyl)-anthracilic acid], the inhibition at 200 mg/kg rises from 47.5% to 54%.
